One data set relates to Pimephales promelas. The data set can be described thus: 96 h LC50 (-log10 mol/L); higher = more toxic.
The next data set concerns Daphnia magna. Nature of the data set: 48 h LC50 (-log10 mol/L); higher = more toxic.
The next data set relates to Tetrahymena pyriformis. The data set can be described thus: 48 h IGC50 (-log10 mol/L); higher = more toxic.

With `CCCCCCCCCc1ccc(O)cc1`, in the data set with Pimephales promelas, the “96 h LC50 (-log10 mol/L)” value amounted to 5.91. The “48 h LC50 (-log10 mol/L)” value in the data set on Daphnia magna turned out to be 6.06. In addition, the “48 h IGC50 (-log10 mol/L)” value with Tetrahymena pyriformis was determined as 5.47.
For `CC#N`, the “96 h LC50 (-log10 mol/L)” value in the data set on Pimephales promelas came to 1.61. Besides, the “48 h LC50 (-log10 mol/L)” value with Daphnia magna came to 1.06. Further, the “48 h IGC50 (-log10 mol/L)” value with Tetrahymena pyriformis was determined as 0.723.
For `CCCCC(=O)O`, in the data set on Pimephales promelas, the “96 h LC50 (-log10 mol/L)” value is 3.12. Also, the “48 h LC50 (-log10 mol/L)” value in the data set with Daphnia magna was found to be 3.36. The “48 h IGC50 (-log10 mol/L)” value in the data set with Tetrahymena pyriformis was found to be 2.73.
Consider `Oc1cc(Cl)c(Cl)cc1Cl`, for which the “96 h LC50 (-log10 mol/L)” value with Pimephales promelas was found to be 5.27. In addition, the “48 h LC50 (-log10 mol/L)” value in the data set with Daphnia magna was determined as 4.86. In addition, the “48 h IGC50 (-log10 mol/L)” value with Tetrahymena pyriformis was 5.1.
The corresponding values for `Cc1cccc([N+](=O)[O-])c1` are 3.64, 4.04 and 3.42.
In the case of `Clc1cccc(Cl)c1`, in the data set on Pimephales promelas, the “96 h LC50 (-log10 mol/L)” value came to 4.27. Also, the “48 h LC50 (-log10 mol/L)” value in the data set on Daphnia magna worked out at 4.3. Moreover, the “48 h IGC50 (-log10 mol/L)” value in the data set on Tetrahymena pyriformis was found to be 3.56.
As for `O=[N+]([O-])c1ccccc1O`, in the data set on Pimephales promelas, the “96 h LC50 (-log10 mol/L)” value worked out at 2.94. In addition, the “48 h LC50 (-log10 mol/L)” value with Daphnia magna was 4.02. Moreover, the “48 h IGC50 (-log10 mol/L)” value with Tetrahymena pyriformis amounted to 3.67.
The corresponding values for `Cc1ccc(O)cc1` are 3.67, 3.71 and 2.84.
As to `COc1cccc(O)c1`, in the data set on Pimephales promelas, the “96 h LC50 (-log10 mol/L)” value was 3.22. In addition, the “48 h LC50 (-log10 mol/L)” value in the data set on Daphnia magna was determined as 3.48. For the same compound, the “48 h IGC50 (-log10 mol/L)” value in the data set with Tetrahymena pyriformis is 2.67.
The corresponding values for `Cc1cc(O)ccc1Cl` are 4.42, 4.85 and 3.8.
For `c1ccc2nc3ccccc3cc2c1`, the “96 h LC50 (-log10 mol/L)” value with Pimephales promelas was found to be 4.89. Besides, the “48 h LC50 (-log10 mol/L)” value in the data set on Daphnia magna is 4.85. In addition, the “48 h IGC50 (-log10 mol/L)” value with Tetrahymena pyriformis came out at 4.4.
Take `Cc1ccccc1`: the “96 h LC50 (-log10 mol/L)” value in the data set on Pimephales promelas is 3.43. The “48 h LC50 (-log10 mol/L)” value in the data set on Daphnia magna worked out at 3. For the same compound, the “48 h IGC50 (-log10 mol/L)” value in the data set with Tetrahymena pyriformis amounted to 3.25.
Turning to `COP(=S)(OC)Oc1ccc(SC)c(C)c1`, the “96 h LC50 (-log10 mol/L)” value with Pimephales promelas worked out at 4.94. For the same compound, in the data set with Daphnia magna, the “48 h LC50 (-log10 mol/L)” value was 6.79.
The corresponding values for `Clc1cccc(-c2ccccc2)c1` are 4.38 and 5.64.
`CCCN(CCC)c1c([N+](=O)[O-])cc(C(C)C)cc1[N+](=O)[O-]`: the “96 h LC50 (-log10 mol/L)” value with Pimephales promelas is 5.85. Further, the “48 h LC50 (-log10 mol/L)” value in the data set on Daphnia magna was determined as 7.01.
For `Cc1ccccc1O`, the “96 h LC50 (-log10 mol/L)” value with Pimephales promelas came out at 3.89. Moreover, the “48 h LC50 (-log10 mol/L)” value with Daphnia magna was 3.86. Also, the “48 h IGC50 (-log10 mol/L)” value with Tetrahymena pyriformis amounted to 2.71.
Regarding `CCN(CC)c1nc(C)cc(OP(=S)(OC)OC)n1`, the “96 h LC50 (-log10 mol/L)” value in the data set with Pimephales promelas stood at 5.09. Besides, the “48 h LC50 (-log10 mol/L)” value in the data set on Daphnia magna was 9.14.
In the case of `O=C(O)COc1ccc(Cl)cc1Cl`, the “96 h LC50 (-log10 mol/L)” value with Pimephales promelas was found to be 2.92. In the data set on Daphnia magna, the “48 h LC50 (-log10 mol/L)” value is 3.78.
`CNc1ccccc1`: the “96 h LC50 (-log10 mol/L)” value in the data set on Pimephales promelas came to 3.03. In addition, the “48 h LC50 (-log10 mol/L)” value in the data set with Daphnia magna was 5.79. Further, in the data set with Tetrahymena pyriformis, the “48 h IGC50 (-log10 mol/L)” value turned out to be 3.06.
Take `O=C(O)CNCP(=O)(O)O`: the “96 h LC50 (-log10 mol/L)” value in the data set on Pimephales promelas was 4.57. Further, the “48 h LC50 (-log10 mol/L)” value with Daphnia magna came out at 3.91.
For the compound `Oc1ccccc1`, the “96 h LC50 (-log10 mol/L)” value with Pimephales promelas worked out at 3.5. Further, in the data set on Daphnia magna, the “48 h LC50 (-log10 mol/L)” value was 3.85. In the data set with Tetrahymena pyriformis, the “48 h IGC50 (-log10 mol/L)” value turned out to be 2.65.
The corresponding values for `CC(O)CC(C)(C)O` (stereo not given) are 1.04, 1.22 and 1.05.
Take `CCc1ccccc1`: in the data set on Pimephales promelas, the “96 h LC50 (-log10 mol/L)” value is 3.95. For the same compound, in the data set on Daphnia magna, the “48 h LC50 (-log10 mol/L)” value came to 4.5.
In the case of `ClC1=C(Cl)[C@]2(Cl)[C@@H]3[C@@H]4C[C@@H]([C@H]5O[C@@H]45)[C@@H]3[C@@]1(Cl)C2(Cl)Cl`, in the data set on Pimephales promelas, the “96 h LC50 (-log10 mol/L)” value was found to be 7.21. Besides, in the data set on Daphnia magna, the “48 h LC50 (-log10 mol/L)” value came to 6.51.
With `CC(C)CO`, the “96 h LC50 (-log10 mol/L)” value in the data set on Pimephales promelas was determined as 1.7. In addition, in the data set with Daphnia magna, the “48 h LC50 (-log10 mol/L)” value was 1.82.
With `CCCCCC`, the “96 h LC50 (-log10 mol/L)” value in the data set with Pimephales promelas came out at 4.54. Moreover, the “48 h LC50 (-log10 mol/L)” value with Daphnia magna turned out to be 4.34. Also, the “48 h IGC50 (-log10 mol/L)” value in the data set on Tetrahymena pyriformis was 3.72.
For `CC(C)(c1ccc(O)cc1)c1ccc(O)cc1`, the “96 h LC50 (-log10 mol/L)” value in the data set with Pimephales promelas is 4.69. Besides, the “48 h LC50 (-log10 mol/L)” value in the data set with Daphnia magna came out at 4.3.
The corresponding values for `c1ccc2c(c1)-c1cccc3cccc-2c13` are 6.77 and 6.28.
The corresponding values for `CCOC(=O)CC(SP(=S)(OC)OC)C(=O)OCC` (stereo not given) are 4.42 and 8.35.
For `c1ccc2c(c1)[nH]c1ccccc12`, the “96 h LC50 (-log10 mol/L)” value in the data set on Pimephales promelas is 5.25. Further, the “48 h LC50 (-log10 mol/L)” value in the data set with Daphnia magna was found to be 4.7. In the data set with Tetrahymena pyriformis, the “48 h IGC50 (-log10 mol/L)” value is 3.91.
With `CCOP(=O)(OCC)Oc1ccc([N+](=O)[O-])cc1`, in the data set on Pimephales promelas, the “96 h LC50 (-log10 mol/L)” value stood at 5.98. The “48 h LC50 (-log10 mol/L)” value in the data set on Daphnia magna was found to be 9.14.

The values are drawn from EPA's aquatic toxicity sets.
